Assays:
[1] = target: T1, human orexin-2 receptor (Homo sapiens (Human), UniProt O43614); test: FLIPR Ca2+ Flux Assay, hOX2R FLIPR; assay type: cell-based; conditions: CHO cells, 70 pM Ala-6,12 human orexin-A agonist
Protocol: (§1) In a typical experiment the OX1 and OX2 receptor antagonistic activity of the compounds of the present invention was determined in accordance with the following experimental method. For intracellular calcium measurements, Chinese hamster ovary (CHO) cells expressing the rat orexin-1 receptor or the human orexin-2 receptor, are grown in Iscove's modified DMEM containing 2 mM L-glutamine, […], 1% hypoxanthine-thymidine supplement, 100 U/ml penicillin, 100 μg/ml streptomycin and 10% heat-inactivated fetal calf serum (FCS). The cells are seeded at 20,000 cells/well into Becton-Dickinson black 384-well clear bottom sterile plates coated with poly-D-lysine. All reagents were from GIBCO-Invitrogen Corp. The seeded plates are incubated overnight at 37° C. and 5% CO2. Ala-6,12 human orexin-A as the agonist is prepared as a 1 mM stock solution in 1% bovine serum albumin (BSA) and diluted in assay buffer (HBSS containing 20 mM HEPES, 0.1% BSA and 2.5 mM probenecid, pH7.4) for use in the assay at a final concentration of 70 pM. Test compounds are prepared as 10 mM stock solution in DMSO, then diluted in 384-well plates, first in DMSO, then assay buffer. On the day of the assay, cells are washed 3 times with 100 μl assay buffer and then incubated for 60 min (37° C., 5% CO2) in 60 μl assay buffer containing 1 μM Fluo-4AM ester, 0.02% pluronic acid, and 1% BSA. The dye loading solution is then aspirated and cells are washed 3 times with 100 μl assay buffer. 30 μl of that same buffer is left in each well. Within the Fluorescent Imaging Plate Reader (FLIPR, Molecular Devices), test compounds are added to the plate in a volume of 25 μl, incubated for 5 min and finally 25 μl of agonist is added. Fluorescence is measured for each well at 1 second intervals for 5 minutes and the height of each fluorescence peak is compared to the height of the fluorescence peak induced by 70 pM Ala-6,12 orexin-A with buffer in place of antagonist. […] Alternatively, compound potency can be assessed by a radioligand binding assay (described in Bergman et. al. Bioorg. Med. Chem. Lett. 2008, 18, 1425-1430) in which the inhibition constant (Ki) is determined in membranes prepared from CHO cells expressing either the OX1 or OX2 receptor. The intrinsic orexin receptor antagonist activity of a compound which may be used in the present invention may be determined by these assays.

[2] = target: T1, human orexin-2 receptor; test: radioligand binding assay, hOX2R BIND; conditions: membranes from CHO cells expressing OX2 receptor; read-out: hOX2R BIND hKi
Protocol: as §1

[3] = target: hOX1R (orexin-1 receptor) (Rattus norvegicus, UniProt P56718); test: FLIPR Ca2+ Flux Assay, hOX1R FLIPR; assay type: cell-based; conditions: CHO cells, 70 pM Ala-6,12 human orexin-A agonist
Protocol: as §1

T1 sequence (O43614 whole entry): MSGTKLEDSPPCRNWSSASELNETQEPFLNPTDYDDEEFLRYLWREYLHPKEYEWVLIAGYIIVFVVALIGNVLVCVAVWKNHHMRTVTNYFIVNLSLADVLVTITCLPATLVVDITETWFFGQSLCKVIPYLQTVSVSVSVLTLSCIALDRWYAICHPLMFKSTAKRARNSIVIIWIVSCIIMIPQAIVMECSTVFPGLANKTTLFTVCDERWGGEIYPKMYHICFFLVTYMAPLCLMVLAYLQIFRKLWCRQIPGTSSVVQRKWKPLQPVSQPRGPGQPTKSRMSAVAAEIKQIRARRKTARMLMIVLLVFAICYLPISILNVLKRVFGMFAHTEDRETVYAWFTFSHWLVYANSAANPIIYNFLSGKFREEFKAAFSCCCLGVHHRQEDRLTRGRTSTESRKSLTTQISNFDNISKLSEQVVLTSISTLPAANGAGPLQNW

Row | SMILES | IC50 [1] [µM] | Ki [2] [µM] | IC50 [3] [µM]
1 | COC(=O)c1c(C#N)ccnc1O[C@@H]1CC[C@@H](C)N(C(=O)c2ccccc2-n2nccn2)C1 [Example 1, Methyl 4-cyano-2-{[(3R,6R)-6-methyl-1-{[2-(2H-1,2,3-triazol-2-yl)phenyl]carbonyl}piperidin-3-yl]oxy}pyridine-3-carboxylate] | 0.019 | 0.00046 | 0.749
2 | COC(=O)c1c(C#N)ccnc1O[C@@H]1CC[C@@H](C)N(C(=O)c2ccccc2-c2nc(C)no2)C1 [Example 2, Methyl 4-cyano-2-{[(3R,6R)-6-methyl-1-{[2-(3-methyl-1,2,4-oxadiazol-5-yl)phenyl]carbonyl}piperidin-3-yl]oxy}pyridine-3-carboxylate] | 0.0208 | 0.00037 | 0.584
3 | COC(=O)c1c(C#N)ccnc1O[C@@H]1CC[C@@H](C)N(C(=O)c2ccc(OC)nc2-n2nccn2)C1 [Example 3, methyl 4-cyano-2-{[(3R,6R)-1-{[6-methoxy-2-(2H-1,2,3-triazol-2-yl)pyridin-3-yl]carbonyl}-6-methylpiperidin-3-yl]oxy}pyridine-3-carboxylate] | 0.0338 | 0.0019 | –
4 | COC(=O)c1c(C#N)ccnc1O[C@@H]1CC[C@@H](C)N(C(=O)c2cccc(F)c2-n2nccn2)C1 [Example 4, methyl 4-cyano-2-{[(3R,6R)-1-{[3-fluoro-2-(2H-1,2,3-triazol-2-yl)phenyl]carbonyl}-6-methylpiperidin-3-yl]oxy}pyridine-3-carboxylate] | 0.0157 | 0.00044 | 1.02
5 | COC(=O)c1c(C#N)ccnc1O[C@@H]1CC[C@@H](C)N(C(=O)c2ccc(F)cc2-n2nccn2)C1 [Example 5, methyl 4-cyano-2-{[(3R,6R)-1-{[4-fluoro-2-(2H-1,2,3-triazol-2-yl)phenyl]carbonyl}-6-methylpiperidin-3-yl]oxy}pyridine-3-carboxylate] | 0.0218 | 0.00066 | 1.01
6 | COC(=O)c1c(C#N)ccnc1O[C@@H]1CC[C@@H](C)N(C(=O)c2cc(F)ccc2-n2nccn2)C1 [Example 6, methyl 4-cyano-2-{[(3R,6R)-1-{[5-fluoro-2-(2H-1,2,3-triazol-2-yl)phenyl]carbonyl}-6-methylpiperidin-3-yl]oxy}pyridine-3-carboxylate] | 0.0182 | 0.00042 | 0.971
7 | COC(=O)c1c(C#N)ccnc1O[C@@H]1CC[C@@H](C)N(C(=O)c2c(F)cccc2-n2nccn2)C1 [Example 7, methyl 4-cyano-2-{[(3R,6R)-1-{[2-fluoro-6-(2H-1,2,3-triazol-2-yl)phenyl]carbonyl}-6-methylpiperidin-3-yl]oxy}pyridine-3-carboxylate] | 0.024 | 0.00033 | 0.432
8 | COC(=O)c1c(C#N)ccnc1O[C@@H]1CC[C@@H](C)N(C(=O)c2cc(F)ccc2-c2nc(C)no2)C1 [Example 8, methyl 4-cyano-2-{[(3R,6R)-1-{[5-fluoro-2-(3-methyl-1,2,4-oxadiazol-5-yl)phenyl]carbonyl}-6-methylpiperidin-3-yl]oxy}pyridine-3-carboxylate] | 0.0249 | 0.00044 | 1.47
9 | COC(=O)c1c(C#N)ccnc1O[C@@H]1CC[C@@H](C)N(C(=O)c2c(F)cccc2-c2nc(C)no2)C1 [Example 9, methyl 4-cyano-2-{[(3R,6R)-1-{[2-fluoro-6-(3-methyl-1,2,4-oxadiazol-5-yl)phenyl]carbonyl}-6-methylpiperidin-3-yl]oxy}pyridine-3-carboxylate] | 0.0388 | 0.0011 | –
10 | COC(=O)c1c(C#N)ccnc1O[C@@H]1CC[C@@H](C)N(C(=O)c2ccccc2-c2noc(C)n2)C1 [Example 10, methyl 4-cyano-2-{[(3R,6R)-6-methyl-1-{[2-(5-methyl-1,2,4-oxadiazol-3-yl)phenyl]carbonyl}piperidin-3-yl]oxy}pyridine-3-carboxylate] | 0.0065 | 0.00053 | 0.698
11 | COC(=O)c1c(C#N)ccnc1O[C@@H]1CC[C@@H](C)N(C(=O)c2cccc(F)c2-c2noc(C)n2)C1 [Example 11, methyl 4-cyano-2-{[(3R,6R)-1-{[3-fluoro-2-(5-methyl-1,2,4-oxadiazol-3-yl)phenyl]carbonyl}-6-methylpiperidin-3-yl]oxy}pyridine-3-carboxylate] | 0.0162 | 0.0005 | 0.956
12 | COC(=O)c1c(C#N)ccnc1O[C@@H]1CC[C@@H](C)N(C(=O)c2ccc(F)cc2-c2noc(C)n2)C1 [Example 12, methyl 4-cyano-2-{[(3R,6R)-1-{[4-fluoro-2-(5-methyl-1,2,4-oxadiazol-3-yl)phenyl]carbonyl}-6-methylpiperidin-3-yl]oxy}pyridine-3-carboxylate] | 0.0302 | 0.0012 | –
13 | COC(=O)c1c(C#N)ccnc1O[C@@H]1CC[C@@H](C)N(C(=O)c2cc(F)ccc2-c2noc(C)n2)C1 [Example 13, methyl 4-cyano-2-{[(3R,6R)-1-{[5-fluoro-2-(5-methyl-1,2,4-oxadiazol-3-yl)phenyl]carbonyl}-6-methylpiperidin-3-yl]oxy}pyridine-3-carboxylate] | 0.0168 | 0.0005 | 1.03
14 | COC(=O)c1c(C#N)ccnc1O[C@@H]1CC[C@@H](C)N(C(=O)c2c(F)cccc2-c2noc(C)n2)C1 [Example 14, methyl 4-cyano-2-{[(3R,6R)-1-{[2-fluoro-6-(5-methyl-1,2,4-oxadiazol-3-yl)phenyl]carbonyl}-6-methylpiperidin-3-yl]oxy}pyridine-3-carboxylate] | 0.0145 | 0.00099 | –
15 | COC(=O)c1c(C#N)ccnc1O[C@@H]1CC[C@@H](C)N(C(=O)c2ccc(F)cc2-c2nc(C)no2)C1 [Example 15, methyl 4-cyano-2-{[(3R,6R)-1-{[4-fluoro-2-(3-methyl-1,2,4-oxadiazol-5-yl)phenyl]carbonyl}-6-methylpiperidin-3-yl]oxy}pyridine-3-carboxylate] | 0.0318 | 0.0022 | 3.08
16 | COC(=O)c1c(C#N)ccnc1O[C@@H]1CC[C@@H](C)N(C(=O)c2cccc(C)c2-n2nccn2)C1 [Example 16, methyl 4-cyano-2-{[(3R,6R)-6-methyl-1-{[3-methyl-2-(2H-1,2,3-triazol-2-yl)phenyl]carbonyl}piperidin-3-yl]oxy}pyridine-3-carboxylate] | 0.0277 | 0.00052 | –
17 | COC(=O)c1c(C#N)ccnc1O[C@@H]1CC[C@@H](C)N(C(=O)c2ccc(C)cc2-n2nccn2)C1 [Example 17, methyl 4-cyano-2-{[(3R,6R)-6-methyl-1-{[4-methyl-2-(2H-1,2,3-triazol-2-yl)phenyl]carbonyl}piperidin-3-yl]oxy}pyridine-3-carboxylate] | 0.0243 | 0.00058 | –
18 | COC(=O)c1c(C#N)ccnc1O[C@@H]1CC[C@@H](C)N(C(=O)c2cc(C)ccc2-n2nccn2)C1 [Example 18, methyl 4-cyano-2-{[(3R,6R)-6-methyl-1-{[5-methyl-2-(2H-1,2,3-triazol-2-yl)phenyl]carbonyl}piperidin-3-yl]oxy}pyridine-3-carboxylate] | 0.022 | 0.00048 | 0.311
19 | COC(=O)c1c(C#N)ccnc1O[C@@H]1CC[C@@H](C)N(C(=O)c2cccc(F)c2-c2ncccn2)C1 [Example 21, methyl 4-cyano-2-({(3R,6R)-1-[(3-fluoro-2-pyrimidin-2-ylphenyl)carbonyl]-6-methylpiperidin-3-yl}oxy)pyridine-3-carboxylate] | 0.0363 | 0.0012 | –
20 | COC(=O)c1c(C#N)ccnc1O[C@@H]1CC[C@@H](C)N(C(=O)c2c(F)cccc2-c2ncccn2)C1 [Example 24, methyl 4-cyano-2-({(3R,6R)-1-[(2-fluoro-6-pyrimidin-2-ylphenyl)carbonyl]-6-methylpiperidin-3-yl}oxy)pyridine-3-carboxylate] | 0.0328 | 0.00042 | –
21 | COC(=O)c1c(C#N)ccnc1O[C@@H]1CC[C@@H](C)N(C(=O)c2ccccc2C2CCC2)C1 [Example 26, Methyl 4-cyano-2-(((3R,6R)-1-(2-cyclobutylbenzoyl)-6-methylpiperidin-3-yl)oxy)nicotinate] | 0.0193 | 0.00026 | –
